Our source for the IC50 values is patent publication US9850245B2 (Merck Sharp & Dohme Corp., priority 2014, dated 2017).

Structures are written as SMILES. Counter-ions that a name gives are not always drawn.

The target in this assay is ROMK (Homo sapiens (Human), UniProt P48048). Nature of the assay: Thallium Flux Assay. In kind it is cell-based. The method, then: A Thallium Flux Assay was performed on the compounds of the Examples. This assay has been described previously; see, e.g., PCT Published Application WO 2013/062900.
Sequence of ROMK (P48048 whole entry): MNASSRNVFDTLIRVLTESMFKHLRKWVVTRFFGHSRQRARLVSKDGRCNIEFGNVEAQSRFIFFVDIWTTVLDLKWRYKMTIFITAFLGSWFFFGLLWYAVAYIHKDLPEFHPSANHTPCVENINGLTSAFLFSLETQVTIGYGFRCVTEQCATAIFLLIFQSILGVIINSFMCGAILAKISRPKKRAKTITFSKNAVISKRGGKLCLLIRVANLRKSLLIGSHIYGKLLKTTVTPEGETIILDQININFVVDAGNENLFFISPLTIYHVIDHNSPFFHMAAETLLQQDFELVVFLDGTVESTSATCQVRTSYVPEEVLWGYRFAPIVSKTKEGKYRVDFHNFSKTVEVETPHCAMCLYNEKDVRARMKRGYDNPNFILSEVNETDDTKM

`CC1=C(N2CCOC3(CCN(CC(O)c4cnc(-n5cnnn5)nc4)CC3)C2=O)COC1=O` (single isomer, unassigned) [Example 46B, 9-(2-(2-(1H-tetrazol-1-yl)pyrimidin-5-yl)-2-hydroxyethyl)-4-(4-methyl-5-oxo-2,5-dihydrofuran-3-yl)-1-oxa-4,9-diazaspiro[5.5]undecan-5-one] yielded an IC50 of 58.1 nM.
The result for `CC1=C(N2CCOC3(CCN(CC(O)c4cnc(-n5cnnn5)cn4)CC3)C2)COC1=O` (single isomer, unassigned) [Example 48A, 4-(9-(2-(5-(1H-tetrazol-1-yl)pyrazin-2-yl)-2-hydroxyethyl)-1-oxa-4,9-diazaspiro[5.5]undecan-4-yl)-3-methylfuran-2(5H)-one] reads 462 nM.
The result for `CC1=C(N2CCOC3(CCN(CC(O)c4cnc(-n5cnnn5)cn4)CC3)C2)COC1=O` (single isomer, unassigned) [Example 48B, 4-(9-(2-(5-(1H-tetrazol-1-yl)pyrazin-2-yl)-2-hydroxyethyl)-1-oxa-4,9-diazaspiro[5.5]undecan-4-yl)-3-methylfuran-2(5H)-one] reads 245 nM.
Consider `CC1=C(N2CC3(CCN(CC(O)c4ccc(-n5cnnn5)nc4C)CC3)OCC2=O)COC1=O` (single isomer, unassigned) [Example 60, 9-(2-hydroxy-2-(2-methyl-6-(1H-tetrazol-1-yl)pyridin-3-yl)ethyl)-4-(4-methyl-5-oxo-2,5-dihydrofuran-3-yl)-1-oxa-4,9-diazaspiro[5.5]undecan-3-one], for which half-maximal inhibition (IC50) was put at 48.4 nM.
`CC1=C(N2CCNC3(CCN(C[C@H](O)c4ccc5c(c4C)COC5=O)CC3)C2=O)COC1=O` [Example 1, 9-[(2R)-2-hydroxy-2-(4-methyl-1-oxo-1,3-dihydro-2-benzofuran-5-yl)ethyl]-4-(4-methyl-5-oxo-2,5-dihydrofuran-3-yl)-1,4,9-triazaspiro[5.5]undecan-5-one dihydrochloride] came in with an IC50 of 68.7 nM.
The result for `CC1=C(N2CCNC3(CCN(C[C@@H](O)c4ccc(-n5cnnn5)nc4)CC3)C2=O)COC1=O` [Example 4B, (S)-9-(2-(6-(1H-tetrazol-1-yl)pyridin-3-yl)-2-hydroxyethyl)-4-(4-methyl-5-oxo-2,5-dihydrofuran-3-yl)-1,4,9-triazaspiro[5.5]undecan-5-one] reads 63.1 nM.
With `CC1=C(N2CC(F)(F)OC3(CCN(C[C@H](O)c4ccc(-n5cnnn5)nc4)CC3)C2)COC1=O` [Example 7A, (R)-4-(9-(2-(6-(1H-tetrazol-1-yl)pyridin-3-yl)-2-hydroxyethyl)-2,2-difluoro-1-oxa-4,9-diazaspiro[5.5]undecan-4-yl)-3-methylfuran-2(5H)-one] the figure was 416 nM.
`CC1=C(N2CC(F)(F)OC3(CCN(C[C@@H](O)c4ccc(-n5cnnn5)nc4)CC3)C2)COC1=O` [Example 7B, (S)-4-(9-(2-(6-(1H-tetrazol-1-yl)pyridin-3-yl)-2-hydroxyethyl)-2,2-difluoro-1-oxa-4,9-diazaspiro[5.5]undecan-4-yl)-3-methylfuran-2(5H)-one]: half-maximal inhibition (IC50) required 688 nM.
The result for `CC1=C(N2CCOC3(CCN(C[C@@H](O)c4ccc5c(c4C)COC5=O)CC3)C2=O)COC1=O` [Example 8B, (S)-9-(2-hydroxy-2-(4-methyl-1-oxo-1,3-dihydroisobenzofuran-5-yl)ethyl)-4-(4-methyl-5-oxo-2,5-dihydrofuran-3-yl)-1-oxa-4,9-diazaspiro[5.5]undecan-5-one] reads 89.9 nM; that for `O=C1C=C(N2CCOC3(CCN(C[C@H](O)c4ccc(-n5cnnn5)nc4)CC3)C2=O)CO1` [Example 12, (R)-9-(2-(6-(1H-tetrazol-1-yl)pyridin-3-yl)-2-hydroxyethyl)-4-(5-oxo-2,5-dihydrofuran-3-yl)-1-oxa-4,9-diazaspiro[5.5]undecan-5-one], 161 nM.
On to `CC1=C(N2CCOC3(CCCN(C[C@@H](O)c4ccc(-n5cnnn5)nc4)CC3)C2=O)COC1=O` (stereo partly drawn) [Example 15, 9-((S)-2-(6-(1H-tetrazol-1-yl)pyridin-3-yl)-2-hydroxyethyl)-4-(4-methyl-5-oxo-2,5-dihydrofuran-3-yl)-1-oxa-4,9-diazaspiro[5.6]dodecan-5-one], for which the IC50 is 280 nM.
`Cc1c([C@@H](O)CN2CCC3(CC2)CN(C2=C(Cl)C(=O)OC2)CCO3)ccc2c1COC2=O` [Example 23, (R)-5-(2-(4-(4-chloro-5-oxo-2,5-dihydrofuran-3-yl)-1-oxa-4,9-diazaspiro[5.5]undecan-9-yl)-1-hydroxyethyl)-4-methylisobenzofuran-1(3H)-one] displayed an IC50 of 59.1 nM.
The compound `O=C1OCC(N2CCOC3(CCN(C[C@H](O)c4ccc(-n5cnnn5)nc4)CC3)C2)=C1Cl` [Example 24A] gave an IC50 of 11.5 nM.
The result for `O=C1OCC(N2CCOC3(CCN(C[C@@H](O)c4ccc(-n5cnnn5)nc4)CC3)C2)=C1Cl` [Example 24B] reads 34.5 nM; that for `O=C1C=C(N2CCC3(CCN(C[C@H](O)c4ccc(-n5cnnn5)nc4)CC3)OC2=O)CO1` [Example 26A, (R)-9-(2-(6-(1H-tetrazol-1-yl)pyridin-3-yl)-2-hydroxyethyl)-3-(5-oxo-2,5-dihydrofuran-3-yl)-1-oxa-3,9-diazaspiro[5.5]undecan-2-one], 171 nM.
In the case of `O=C1OCC(N2CCOC3(CCN(C[C@H](O)c4ccc(-n5cnnn5)nc4)CC3)C2)=C1C1CC1` [Example 28A, (R)-4-(9-(2-(6-(1H-tetrazol-1-yl)pyridin-3-yl)-2-hydroxyethyl)-1-oxa-4,9-diazaspiro[5.5]undecan-4-yl)-3-cyclopropylfuran-2(5H)-one], the IC50 came out at 224 nM.
The compound `O=C1OCC(N2CCOC3(CCN(C[C@@H](O)c4ccc(-n5cnnn5)nc4)CC3)C2)=C1C1CC1` [Example 28B, (S)-4-(9-(2-(6-(1H-tetrazol-1-yl)pyridin-3-yl)-2-hydroxyethyl)-1-oxa-4,9-diazaspiro[5.5]undecan-4-yl)-3-cyclopropylfuran-2(5H)-one] had an IC50 of 630 nM.
The result for `CC1=C(N2CCCOC3(CCN(C[C@H](O)c4ccc5c(c4C)COC5=O)CC3)C2=O)COC1=O` [Example 37, (R)-3-(2-hydroxy-2-(4-methyl-1-oxo-1,3-dihydroisobenzofuran-5-yl)ethyl)-11-(4-methyl-5-oxo-2,5-dihydrofuran-3-yl)-7-oxa-3,11-diazaspiro[5.6]dodecan-12-one] reads 285 nM.
With `CC1=C(N2CCOC3(CC4CCC(C3)N4C[C@H](O)c3ccc4c(c3C)COC4=O)C2=O)COC1=O` (stereo partly drawn) [Example 42, (1R,2′R,5S)-8-((R)-2-hydroxy-2-(4-methyl-1-oxo-1,3-dihydroisobenzofuran-5-yl)ethyl)-4′-(4-methyl-5-oxo-2,5-dihydrofuran-3-yl)-8-azaspiro[bicyclo[3.2.1]octane-3,2′-morpholin]-3′-one] the figure was 87.4 nM.
With `CC1=C(N2CCOC3(CC4CCC(C3)N4C[C@H](O)c3ccc(-n4cnnn4)nc3)C2=O)COC1=O` (stereo partly drawn) [Example 47, (1R,2′R,5S)-8-((R)-2-(6-(1H-tetrazol-1-yl)pyridin-3-yl)-2-hydroxyethyl)-4′-(4-methyl-5-oxo-2,5-dihydrofuran-3-yl)-8-azaspiro[bicyclo[3.2.1]octane-3,2′-morpholin]-3′-one] the figure was 9.57 nM.
Compound `CC1=C(N2CCOC3(CCN(CCc4ccc5c(c4C)COC5=O)CC3)C2=O)COC1=O` [Example 49, 9-(2-(4-methyl-1-oxo-1,3-dihydroisobenzofuran-5-yl)ethyl)-4-(4-methyl-5-oxo-2,5-dihydrofuran-3-yl)-1-oxa-4,9-diazaspiro[5.5]undecan-5-one] had an IC50 of 52.4 nM.
For the compound `CC1=C(N2CCOC3(CCN(CCc4cnc(-n5cnnn5)cn4)CC3)C2=O)COC1=O` [Example 52, 9-(2-(5-(1H-tetrazol-1-yl)pyrazin-2-yl)ethyl)-4-(4-methyl-5-oxo-2,5-dihydrofuran-3-yl)-1-oxa-4,9-diazaspiro[5.5]undecan-5-one], the IC50 was found to be 39.3 nM.
The compound `CC1=C(N2CCOC3(CCN(CCc4ccc(-n5cnnn5)nc4)CC3)C2=O)COC1=O` [Example 53, 9-(2-(6-(1H-tetrazol-1-yl)pyridin-3-yl)ethyl)-4-(4-methyl-5-oxo-2,5-dihydrofuran-3-yl)-1-oxa-4,9-diazaspiro[5.5]undecan-5-one] had an IC50 of 13.1 nM.
For the compound `O=C1C=C(N2CCOC3(CC4CCC(C3)N4CCc3ccc(-n4cnnn4)nn3)C2=O)CO1` [Example 54, (1R,2′r,5S)-8-(2-(6-(1H-tetrazol-1-yl)pyridazin-3-yl)ethyl)-4′-(5-oxo-2,5-dihydrofuran-3-yl)-8-azaspiro[bicyclo[3.2.1]octane-3,2′-morpholin]-3′-one], the midpoint of inhibition, the IC50, lay at 3.76 nM.
The result for `CC1=C(N2CCOC3(CCN(C[C@H](F)c4ccc(-n5cnnn5)nc4)CC3)C2=O)COC1=O` [Example 55, (R)-9-(2-(6-(1H-tetrazol-1-yl)pyridin-3-yl)-2-fluoroethyl)-4-(4-methyl-5-oxo-2,5-dihydrofuran-3-yl)-1-oxa-4,9-diazaspiro[5.5]undecan-5-one] reads 59 nM; that for `CC1=C(N2CCOC3(CCN(C[C@@H](F)c4ccc(-n5cnnn5)nc4)CC3)C2=O)COC1=O` [Example 56, (S)-9-(2-(6-(1H-tetrazol-1-yl)pyridin-3-yl)-2-fluoroethyl)-4-(4-methyl-5-oxo-2,5-dihydrofuran-3-yl)-1-oxa-4,9-diazaspiro[5.5]undecan-5-one], 49 nM.
In the case of `CC1=C(N2CCOC3(CCN(C[C@H](F)c4ccc5c(c4C)COC5=O)CC3)C2=O)COC1=O` [Example 57, (R)-9-(2-fluoro-2-(4-methyl-1-oxo-1,3-dihydroisobenzofuran-5-yl)ethyl)-4-(4-methyl-5-oxo-2,5-dihydrofuran-3-yl)-1-oxa-4,9-diazaspiro[5.5]undecan-5-one], the IC50 was found to be 218 nM.
The result for `CC1=C(N2CCOC3(CCN(C[C@@H](F)c4ccc5c(c4C)COC5=O)CC3)C2=O)COC1=O` [Example 58, (S)-9-(2-fluoro-2-(4-methyl-1-oxo-1,3-dihydroisobenzofuran-5-yl)ethyl)-4-(4-methyl-5-oxo-2,5-dihydrofuran-3-yl)-1-oxa-4,9-diazaspiro[5.5]undecan-5-one] reads 306 nM.
